Results: BindingDB's records for doi:10.1021/jm991098z (Friedrich-Alexander University, 2000)

Legend:
D(4) dopamine receptor = biological target: T1, D(4) dopamine receptor (Homo sapiens, UniProt P21917); assay: Binding Affinity was tested on relative proportion of High Affinity Site of Dopamine receptor D4.4
T1 sequence (P21917 whole entry): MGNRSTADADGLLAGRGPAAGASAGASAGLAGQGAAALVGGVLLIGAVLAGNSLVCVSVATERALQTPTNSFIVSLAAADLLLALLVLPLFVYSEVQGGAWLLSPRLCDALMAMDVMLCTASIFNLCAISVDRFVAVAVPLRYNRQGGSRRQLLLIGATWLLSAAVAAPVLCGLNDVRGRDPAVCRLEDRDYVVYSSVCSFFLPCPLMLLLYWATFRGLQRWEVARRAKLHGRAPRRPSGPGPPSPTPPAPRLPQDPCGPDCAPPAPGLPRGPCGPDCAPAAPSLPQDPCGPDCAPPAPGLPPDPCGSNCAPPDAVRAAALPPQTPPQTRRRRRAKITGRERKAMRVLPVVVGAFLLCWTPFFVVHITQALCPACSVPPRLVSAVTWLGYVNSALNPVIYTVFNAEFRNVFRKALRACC

D(2) dopamine receptor [1] = biological target: T2, D(2) dopamine receptor (Homo sapiens, UniProt P14416); assay: Binding Affinity was tested on relative proportion of High Affinity Site of Dopamine receptor D2S
T2 sequence (P14416 whole entry): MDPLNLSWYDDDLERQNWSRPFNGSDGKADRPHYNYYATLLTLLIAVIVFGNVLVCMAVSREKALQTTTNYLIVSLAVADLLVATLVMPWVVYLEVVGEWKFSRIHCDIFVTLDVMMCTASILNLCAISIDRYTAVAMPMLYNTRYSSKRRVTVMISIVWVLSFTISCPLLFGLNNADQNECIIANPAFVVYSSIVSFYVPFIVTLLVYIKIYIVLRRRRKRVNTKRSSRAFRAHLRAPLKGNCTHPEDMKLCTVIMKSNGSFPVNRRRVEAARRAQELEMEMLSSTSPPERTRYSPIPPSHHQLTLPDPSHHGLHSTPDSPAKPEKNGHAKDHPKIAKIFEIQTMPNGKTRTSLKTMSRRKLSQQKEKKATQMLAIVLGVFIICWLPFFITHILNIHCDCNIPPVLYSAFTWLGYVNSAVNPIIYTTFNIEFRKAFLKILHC

[2] = Binding Affinity was tested on relative proportion of High Affinity Site of Dopamine receptor D3
D(2) dopamine receptor [3] = biological target: T2, D(2) dopamine receptor; assay: Binding Affinity was tested on relative proportion of High Affinity Site of Dopamine receptor D2L

Row | SMILES | RH (D(4) dopamine receptor) | RH (D(2) dopamine receptor [1]) | Ki [2] | RH (D(2) dopamine receptor [3])
1 | CCCN(CCC)C1CC=C(C#C[Si](C)(C)C)CC1 (configuration not stated) [Dipropyl-(4-trimethylsilanylethynyl-cyclohex-3-enyl)-amine] | 54% | 17% | 23 nM | 16%
2 | C#CC1=CCC(N(CCC)CCC)CC1 (configuration not stated) [(4-Ethynyl-cyclohex-3-enyl)-dipropyl-amine] | 38% | 34% | – | 38%
